What was measured:
Assay in all cases: relative viability (nuclei count vs DMSO), 5 days (fraction); higher = more cells survive
Trametinib + Palbociclib = compound: CC(=O)Nc1cccc(-n2c(=O)n(C3CC3)c(=O)c3c(Nc4ccc(I)cc4F)n(C)c(=O)c(C)c32)c1 [Trametinib] + CC(=O)c1c(C)c2cnc(Nc3ccc(N4CCNCC4)cn3)nc2n(C2CCCC2)c1=O [Palbociclib] (partner 0.5 µM)
Summary of the method: (§1)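 Nuclei were stained with Hoechst during a one-step fixation (final 0.05% Triton X-100, 1% formaldehyde, 1 ug/ml Hoechst) carried out 5 days after dosing, then counted on 4× images. The cells, lung cancer lines in 1536-well plates, had been dosed by pin tool the day after seeding with one drug alone or a fixed anchor-drug dose plus five library-drug doses (not always all listed) in √10 steps. Relative viability is the nuclei count in treated wells divided by that in vehicle wells, and each value is the median of duplicate plates.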

[1] = compound: CN1C=C(C2=CC=CC=C21)/C=C\3/C4=C(C=CC=N4)NC3=O + NC(=O)Nc1cc(-c2cccc(F)c2)sc1C(=O)N[C@H]1CCCNC1 [AZD7762] (partner 0.2 µM)
Summary of the method: as §1

[2] = compound: CN1C=C(C2=CC=CC=C21)/C=C\3/C4=C(C=CC=N4)NC3=O + COc1cccc2cc(-c3nc([C@H]4CC[C@H](C(=O)O)CC4)n4ncnc(N)c34)[nH]c12 [OSI-027] (partner 0.5 µM)
Summary of the method: as §1

[3] = compound: CN1C=C(C2=CC=CC=C21)/C=C\3/C4=C(C=CC=N4)NC3=O + CC(=O)Nc1cccc(-n2c(=O)n(C3CC3)c(=O)c3c(Nc4ccc(I)cc4F)n(C)c(=O)c(C)c32)c1 [Trametinib] (partner 0.02 µM)
Summary of the method: as §1

Row | Cell Line | relative viability (Trametinib + Palbociclib; first compound 0.0025 µM) | relative viability (Trametinib + Palbociclib; first compound 0.007906 µM) | relative viability (Trametinib + Palbociclib; first compound 0.025 µM) | relative viability (Trametinib + Palbociclib; first compound 0.25 µM) | relative viability ([1]; first compound 0.02 µM) | relative viability ([1]; first compound 0.06325 µM) | relative viability ([1]; first compound 0.2 µM) | relative viability ([1]; first compound 0.6325 µM) | relative viability ([1]; first compound 2 µM) | relative viability ([2]; first compound 0.02 µM) | relative viability ([2]; first compound 0.06325 µM) | relative viability ([2]; first compound 0.2 µM) | relative viability ([2]; first compound 0.6325 µM) | relative viability ([2]; first compound 2 µM) | relative viability ([3]; first compound 0.02 µM) | relative viability ([3]; first compound 0.06325 µM) | relative viability ([3]; first compound 0.2 µM) | relative viability ([3]; first compound 0.6325 µM) | relative viability ([3]; first compound 2 µM) | relative viability (Trametinib + Palbociclib; first compound 0.07906 µM)
1 | PC-3 [JPC-3] | 0.556 | 0.581 | 0.483 | 0.575 | 0.811 | 0.801 | 0.752 | 0.819 | 0.701 | 0.698 | 0.487 | 0.747 | 0.703 | 0.694 | 0.824 | 0.657 | 0.667 | 0.718 | 0.717 | 
2 | HCC-366 | 0.307 | 0.287 | 0.137 | 0.0678 | 0.29 | 0.278 | 0.0805 | 0.178 | 0.24 | 0.678 | 0.89 | 0.52 | 0.852 | 0.75 | 0.279 | 0.316 | 0.307 | 0.291 | 0.318 | 0.0839
3 | NCI-H522 | 1.01 | 0.936 | 0.693 | 0.668 | 0.686 | 0.784 | 0.76 | 1.1 | 0.882 | 0.648 | 0.743 | 0.761 | 0.75 | 0.835 | 0.746 | 0.712 | 0.793 | 0.752 | 0.852 | 0.859
4 | NCI-H1651 | 0.489 | 0.501 | 0.51 | 0.432 | 0.497 | 0.455 | 0.433 | 0.557 | 0.477 | 0.615 | 0.724 | 0.65 | 0.66 | 0.733 | 0.818 | 0.833 | 0.861 | 0.837 | 0.868 | 0.459
5 | NCI-H1648 | 0.251 | 0.284 | 0.278 | 0.303 | 0.705 | 0.502 | 0.673 | 0.522 | 0.816 |  | 0.239 | 0.259 | 0.258 | 0.281 | 0.691 | 0.543 | 0.42 | 0.532 | 0.482 | 0.336
6 | NCI-H1355 | 0.353 | 0.321 | 0.217 | 0.224 | 0.715 | 0.708 | 0.637 | 0.606 | 0.642 | 0.371 | 0.348 | 0.3 | 0.345 | 0.362 | 0.336 | 0.361 | 0.423 | 0.274 | 0.3 | 0.225
7 | LC-2-ad | 0.5 | 0.452 | 0.461 | 0.404 | 0.836 | 0.835 | 0.754 | 0.821 | 0.861 | 0.81 | 0.811 | 0.687 | 0.803 | 0.724 | 0.98 | 0.865 | 0.967 | 0.953 | 0.87 | 0.381
8 | NCI-H1944 | 0.316 | 0.246 | 0.223 | 0.163 | 0.442 | 0.471 |  | 0.464 | 0.469 | 0.433 | 0.368 |  | 0.423 | 0.351 | 0.359 | 0.359 |  | 0.405 | 0.444 | 0.207
9 | HCC-827 | 0.461 | 0.395 | 0.423 | 0.289 | 0.202 | 0.187 |  | 0.246 | 0.215 | 0.771 | 0.662 |  | 0.804 | 0.721 | 0.509 | 0.528 |  | 0.571 | 0.566 | 0.296
10 | NCI-H3122 | 0.189 | 0.158 | 0.125 | 0.101 | 0.85 | 0.953 | 0.845 | 1.04 | 1.07 | 0.879 | 0.9 |  | 1.18 | 1.4 | 0.153 | 0.21 | 0.227 | 0.242 | 0.269 | 0.112
11 | NCI-H2170 | 0.4 | 0.419 |  | 0.342 | 0.86 | 0.811 | 0.581 | 0.825 | 0.761 | 0.718 | 0.69 | 0.55 | 0.764 | 0.668 | 0.915 | 0.949 | 0.917 | 0.954 | 0.875 | 0.399
12 | NCI-H1793 | 0.277 | 0.242 | 0.225 | 0.192 | 0.431 | 0.595 | 0.316 | 0.387 | 0.443 | 0.283 | 0.252 | 0.248 | 0.244 | 0.197 | 0.526 | 0.611 | 0.396 | 0.441 | 0.387 | 0.213
13 | BEN | 0.455 | 0.479 | 0.455 | 0.468 | 0.771 | 0.742 | 0.485 | 0.622 | 0.728 | 0.282 | 0.29 |  | 0.403 | 0.276 | 1.05 | 0.981 | 1 | 0.966 | 1.18 | 0.475
14 | NCI-H647 | 0.374 | 0.344 | 0.334 | 0.108 | 0.348 | 0.418 | 0.0952 | 0.304 | 0.378 | 0.719 | 0.616 | 0.478 | 0.655 | 0.557 | 0.532 | 0.404 | 0.41 | 0.38 | 0.404 | 0.16
15 | PC-14 | 0.46 | 0.306 | 0.295 | 0.102 | 0.254 | 0.307 | 0.19 | 0.306 | 0.264 | 0.95 | 0.819 | 0.751 | 0.84 | 0.785 | 0.713 | 0.69 | 0.692 | 0.747 | 0.78 | 0.214
16 | HCC-78 | 0.452 | 0.46 | 0.398 | 0.449 | 0.502 | 0.546 | 0.6 | 0.608 | 0.348 | 0.368 | 0.335 |  | 0.392 | 0.35 | 0.522 | 0.675 | 0.706 | 0.553 | 0.694 | 0.457

— the supplement of paper PMC10307832
